Drawing on patent US20140024576A1, “HEPTOSE DERIVATIVES FOR USE IN THE TREATMENT OF BACTERIAL INFECTIONS” (priority 2010, published 2014), this text covers IC50 for 7 compounds.

The structures appear in SMILES notation. A value given as a limit tells only on which side of the number the result lay.

The target of experiment [1] is HldE of E. coli (HldE-K) (Escherichia coli, UniProt P76658). The experiment can be described thus: Inhibition of the enzymatic activity of HldE-K (luminescent assay on kinase activity). The format is biochemical. The procedure: Inhibition of the Enzymatic Activity of HldE-K (Luminescent Assay On Kinase Activity):
The assay buffer “AB” contained 50 mM Hepes pH7.5, 1 mM MnCl2, 25 mM KCl, 0.012% Triton-X100 and 1 mM dithiothreitol (DTT) and 0.1 μM Myelin basic protein (MBP). The following components were added in a white polystyrene Costar plate up to a final volume of 30 μL: 10 μL inhibitor dissolved in DMSO/water 50/50, and 20 μL HldE of E. coli in AB. After 30 min of pre-incubation at room temperature, 30 μL of Substrates mix in AB were added in each well to a final volume of 60 μL. This reaction mixture was then composed of 3 nM HldE, 0.2 μM β-heptose-7-phosphate (custom synthesis) and 0.2 μM ATP (Sigma) in assay buffer. After 30 min of incubation at room temperature, 200 μL of the revelation mix were added to a final volume of 260 µL, including the following constituents at the respective final concentrations: 5000 light units/ml luciferase (Sigma), 30 μM D-luciferin (Sigma), 100 μM N-acetylcysteamine (Aldrich). Luminescence intensity was immediately measured on Luminoskan (Thermofischer) and converted into inhibition percentages. For IC50 determinations, the inhibitor was tested at 6 to 10 different concentrations, and the related inhibitions were fitted to a classical Langmuir equilibrium model using XLFIT (IDBS).

In experiment [2] the target is GmhA of E. coli (Escherichia coli, UniProt P63224). The experiment can be described thus: Inhibition of the enzymatic activity of GmhA (luminescent assay). The class given is biochemical. The procedure:
Inhibition of the Enzymatic Activity of GmhA (Luminescent Assay):
The assay buffer “AB” contained 50 mM Hepes pH7.5, 1 mM MnCl2, 25 mM KCl, 0.012% Triton-X100 and 1 mM dithiothreitol (DTT) and 0.1 μM Myelin basic protein (MBP). The following components were added in a white polystyrene Costar plate up to a final volume of 30 μL: 10 μL inhibitor dissolved in DMSO/water 50/50, and 20 μL GmhA of E. coli in AB. After 30 min of pre-incubation at room temperature, 30 μL of Substrates mix in AB were added in each well to a final volume of 60 μL. This reaction mixture was then composed of 2 nM GmhA, 3 μM sedoheptulose-7-phosphate (Sigma), 3 μM ATP (Sigma) and 50 nM HldE of E. coli in assay buffer. After 30 min of incubation at room temperature, 100 μL of the revelation mix were added to a final volume of 160 μL, including the following constituents at the respective final concentrations: 10000 light units/ml luciferase (Sigma), 20 μM D-luciferin (Sigma), 100 μM N-acetylcysteamine (Aldrich). Luminescence intensity was immediately measured on Luminoskan (Thermofischer) and converted into inhibition percentages. For IC50 determinations, the inhibitor was tested at 6 to 10 different concentrations, and the related inhibitions were fitted to a classical langmuir equilibrium model using XLFIT (IDBS).

Sequence of GmhA of E. coli (P63224 whole entry): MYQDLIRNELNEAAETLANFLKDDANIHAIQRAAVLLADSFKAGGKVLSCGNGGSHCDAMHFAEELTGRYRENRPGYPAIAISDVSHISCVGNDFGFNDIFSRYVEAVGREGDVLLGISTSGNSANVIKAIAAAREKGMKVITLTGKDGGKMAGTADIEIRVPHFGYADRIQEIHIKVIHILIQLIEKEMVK
Sequence of HldE of E. coli (HldE-K) (P76658 whole entry): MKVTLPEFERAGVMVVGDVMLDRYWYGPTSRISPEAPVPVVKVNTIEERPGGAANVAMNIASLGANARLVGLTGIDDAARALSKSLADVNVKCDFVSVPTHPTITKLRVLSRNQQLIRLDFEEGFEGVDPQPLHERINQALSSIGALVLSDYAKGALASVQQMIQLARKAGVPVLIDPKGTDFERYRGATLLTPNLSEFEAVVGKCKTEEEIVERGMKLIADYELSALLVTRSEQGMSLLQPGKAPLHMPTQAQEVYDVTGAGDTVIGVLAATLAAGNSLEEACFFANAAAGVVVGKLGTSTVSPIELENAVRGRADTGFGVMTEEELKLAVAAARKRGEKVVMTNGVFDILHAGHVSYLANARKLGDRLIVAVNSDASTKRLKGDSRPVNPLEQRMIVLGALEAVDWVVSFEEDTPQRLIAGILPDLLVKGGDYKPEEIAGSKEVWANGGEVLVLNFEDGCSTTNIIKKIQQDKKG

As to `CO[C@H]1OC([C@H](O)COP(=O)(O)O)[C@@H](O)C(O)C1O` (stereo partly drawn) [Example 1, Methyl 7-O-phosphate-D-glycero-α-D-gluco-heptopyranoside], the IC50 in experiment [1] and in experiment [2] was under 100 µM each time.

`CO[C@@H]1O[C@H]([C@H](O)COP(=O)(O)O)[C@@H](O)[C@H](O)[C@@H]1O` [Example 3, 1-O-Methyl-D-glycero-β-D-manno-heptopyranose 7-phosphate] displayed an IC50 in experiment [2] of under 100 µM.

In the case of `O=P(O)(O)OC[C@@H](O)[C@H]1O[C@H](F)[C@@H](O)[C@@H](O)[C@@H]1O` [Example 6, α-Fluoro 7-O-phosphoryl-D-glycero-α-D-manno-heptopyranoside], the IC50 in experiment [1] and in experiment [2] was under 100 µM each time.

Consider `CCC[C@H]1O[C@H]([C@H](O)COP(=O)(O)O)[C@@H](O)[C@H](O)[C@@H]1O` [Example 8, 1-Deoxy-1-propyl-D-glycero-α-D-manno-heptopyranose 7-phosphate], for which the IC50 in experiment [1] and in experiment [2] was under 100 µM in each case.

On to `O=P(O)(O)OC[C@@H](O)[C@H]1O[C@@H](CO)[C@@H](O)[C@@H](O)[C@@H]1O` [Example 11, 1-β-C-Hydroxymethylene 1-Deoxy-7-O-phosphoryl-D-glycero-D-manno-heptopyranose], for which the IC50 in experiment [1] and in experiment [2] was under 100 µM throughout.

On to `CC1(O)OC(C(O)COP(=O)(O)O)C(O)C(O)C1O` [Example 12, 1-C-Methyl 7-O-phosphoryl-D-glycero-α-D-manno-heptopyranose], for which the IC50 in experiment [1] and in experiment [2] was under 100 µM in each case.

Turning to `O=P(O)(O)OC[C@@H](O)[C@H]1O[C@@](O)(CO)[C@@H](O)[C@@H](O)[C@@H]1O` [Example 13, 1-C-Hydroxymethylene 7-O-phosphoryl-D-glycero-D-manno-heptopyranose], the half-maximal inhibitory concentration (IC50) in experiment [1] and in experiment [2] was under 100 µM throughout.

By IC50 is commonly meant the midpoint of a concentration-inhibition curve. Read a high IC50 as a need for much substance.
